Assay results: patent US8440683B2, “Pharmaceutical preparation for treating demyelinating diseases of the nervous system; preparation promoting restoration of the myelin sheath of nerve fibers; and a method for treating demyelinating diseases of the nervous system” (priority 2007, dated 2013)

Tests used:
[1] = clinical scale; abscesses, hematomas, elevated arterial pressure, allergic reactions etc.; cited from earlier work
Schwann cells = assay: stimulation of Schwann cell growth and myelin formation; conditions: inventors' experiments
degenerating nerves = assay: myelination of degenerating nerves in rats; type: in vivo
Excerpt: By comparison, myelination of nerve fibers proceeded slowly in control animals that were not treated with stephaglabrin sulfate and was not completed even within 100 to 120 days.

[2] = treatment of myelopathy patients with lateral amyotrophic syndrome; type: in vivo; conditions: intramuscular 2.0 ml of 0.25% solution twice a day, two to three weeks
Experimental: Administration of stephaglabrin sulfate intramuscularly in 2.0 ml doses of a 0.25% solution twice a day for two to three weeks in treating myelopathy patients showing elements of a lateral amyotrophyic syndrome.

[3] = treatment of patients with cerebrospinal form of disseminated sclerosis; type: in vivo; conditions: disseminated sclerosis with tetraparesis, cerebello-ataxic syndrome, pelvic disorders
Excerpt: The preparation was effective in patients suffering from the cerebrospinal form of disseminated sclerosis combined with tetraparesis, cerebello-ataxic syndrome, and pelvic disorders.

[4] = treatment of syringomyelia patients; type: in vivo
Experimental: The preparation was administered to 37 patients suffering from syringomyelia.
Along with the administration of the preparation, all the patients were directed to take massage sessions, physiotherapy exercises, spine ionization by potassium iodide, and vitamins B1 and B12. […] Special attention must be drawn to the fact that the malfunctions are corrected in patients showing early signs of syringobulbia.

[5] = treatment of amyotrophic lateral sclerosis patients; type: in vivo
Excerpt: Another patient had their disordered breathing, which could not be corrected by other preparations, restored.

[6] = in water and aqueous alcohol; cited from earlier work
[7] = tested on: true and false cholinesterase; conditions: cited from earlier work
smooth muscles = conditions: cited from earlier work
[8] = in vivo; cited from earlier work
[9] = in vivo; cited from earlier work; remark: listed apart in the source
[10] = tested on: connective tissue development; conditions: damage to a nerve; U.S.S.R. Patent No. 1,713,151; cited from earlier work

Question: With glatiramer acetate [Copaxone-Teva] as the substance, how does the “side reactions on clinical use” value [1] read?
Answer: The value was “Numerous side reactions”.

Question: With stephaglabrin sulfate as the substance, how does the “growth of Schwann cells and subsequent myelin formation” value (Schwann cells) read?
Answer: Its value is “stimulate the growth of Schwann cells”.

Question: And the “start of myelination of degenerating nerves” value (degenerating nerves; 0.1 to 1.0 mg/kg, versus untreated animals)?
Answer: Its value is “stimulates an early start of myelination”.

Question: What about the “speed of impulse passage in the nerve” value (degenerating nerves; electrophysiological studies) of the same substance?
Answer: The value was “complete recovery”.

Question: And the clinical effects observed [2]?
Answer: Its clinical effects observed is “disappearance of fibrillations, reduction in amyotrophy intensity and polykinetics of proprioceptive reflexes, and growth of muscle power in the arms”.

Question: What about the clinical effectiveness [3] of the same substance?
Answer: The clinical effectiveness was “effective”.

Question: And the “time to lowered levels of sensing disorders” value ([4]; from the start of treatment, 2 ml twice a day plus massage, physiotherapy, vitamins)?
Answer: Its value is “within two to three weeks”.

Question: What about the “patients with a positive effect” value ([4]; of 37 syringomyelia patients) of the same substance?
Answer: The value was 28 patients.

Question: What about the “onset of decline of sympathalgic pain intensity” value ([4]; some patients) of the same substance?
Answer: The value was 10th to 12th day.

Question: And the therapeutic effect ([5]; 14 patients with severe amyotrophic lateral sclerosis)?
Answer: The therapeutic effect was “positive therapeutic effect”.

Question: What about the disordered breathing ([5]; another patient, not corrected by other preparations) of the same substance?
Answer: Its disordered breathing is “restored”.

Question: And the “patients with strength build-up in the extremities and reduced bulbar disorders” value ([5]; of 14 patients)?
Answer: The value was 12 patients.

Question: What about the swallowing ([5]; one patient with aphonia and dysphagia, after 10 days of 2 ml twice a day) of the same substance?
Answer: Its swallowing is “significant improvement in swallowing”.

Question: What about the solubility [6] of the same substance?
Answer: Its solubility is “well soluble”.

Question: And the “activity of true and false cholinesterase” value [7]?
Answer: The value was “suppresses the activity”.

Question: What about the “effect on smooth muscles” value (smooth muscles) of the same substance?
Answer: The value was “tonic effect”.

Question: What about the arterial pressure [8] of the same substance?
Answer: Its arterial pressure is “lowers arterial pressure”.

Question: And the toxicity [9]?
Answer: The toxicity was “low toxicity”.

Question: And the “activity in relation to connective tissue development, preventing formation of scars” value [10]?
Answer: The value was “specific inhibiting activity”.
